Where two headings read alike, the source gives them in different places.
Key:
MDA-MB [1] = experiment: cells; details: Homo sapiens, read-out: Average cell viability, MDA-MB
[2] = system: U373 (glioblastoma-astrocytoma); experiment: CIMA assay, cell viability, U373; details: for Fold change in viability AVG: U373
Protocol: (§1) Stock solutions of the extracts were prepared in dimethylsulfoxide (DMSO) at 10 mg/mL and stored in 200 μl aliquots at −20° C. until analysis. This preparation ensured that the DMSO delivered to cells in culture never exceeded 1%.
(§2) Prepared extracts were assessed following chronic exposure conditions in which cells were seeded at 2×10^3 cells/well (96 well-plate) and incubated with test compounds for 72 h. Each compound was evaluated over a range of concentrations (0, 10, 25, 50 or 100 μg/ml). Cell proliferation was initially assessed using a standard colorimetric indicator of metabolic activity (CIMA) assay. In this assay, tetrazole reduction was evaluated as a measure of metabolic function that evaluates mitochondrial activity to determine the extent of cell proliferation within a culture. This assay is based on the reduction of yellow tetrazolium salt to purple formazan by mitochondrial reductases enzyme in viable cells, resulting in a color changed that confers a change in absorbance.

[3] = system: CCD1079SK (fibroblast, noncancerous but proliferating); experiment: CIMA assay, cell viability, CCD1079SK; details: CCD
A549 (lung carcinoma) = experiment: CIMA assay (colorimetric indicator of metabolic activity), cell viability, A549; details: for Fold change in viability AVG: A549
MDA-MB [4] = details: MDA-MB
in vitro = details: human, Average cell viability
PC3 = experiment: CIMA assay, cell viability, PC3; details: for Fold change in viability AVG: PC3
[5] = system: SKOV3 (ovarian adenocarcinoma); experiment: CIMA assay, cell viability, SKOV3; details: for Fold change in viability AVG: SKOV
Protocol: as §1, §2

[6] = system: THP-1 (acute monocytic leukemia); experiment: CIMA assay, cell viability, THP-1; details: for Fold change in viability AVG: THP-1
Protocol: as §1, §2

cancer cell lines = experiment: Anti-cancer screening of extracts, fractions and compounds (CIMA assay, bioassay-guided fractionation); type: cell-based, human; details: in vitro
Protocol: Lead crude extracts were fractionated into five fractions by C-18 SPE column separation using 15 ml each of 5% methanol (fraction 1), 25% methanol (fraction 2), 50% methanol (fraction 3), 100% methanol (fraction 4) and […] (fraction 5). Extracts were fractionated and the resulting fractions were evaluated using CIMA assay. Bio-assay guided fractionation provided detailed information regarding the compound(s) responsible for specific bioactivity.

Compound `CCCCC/C=C\C/C=C\CCCCCCCC(=O)O` [Compound 20, linoleic acid] has a viability at 1 µg/mL (MDA-MB [1]; 1 ug/mL) of 100%, a viability at 10 µg/mL (MDA-MB [1]; 10 ug/mL) of 95% and a viability at 50 µg/mL (MDA-MB [1]; 50 ug/mL) of 17%. The viability at 100 µg/mL (MDA-MB [1]; 100 ug/mL) was 15%, the viability at 1 µg/mL ([2]; Homo sapiens, U373 MG, read-out: Average cell viability, U373, 1 ug/mL) was 87% and the viability at 10 µg/mL ([2]; Homo sapiens, U373 MG, read-out: Average cell viability, U373, 10 ug/mL) was 89%. For the same compound, the viability at 50 µg/mL ([2]; Homo sapiens, U373 MG, read-out: Average cell viability, U373, 50 ug/mL) was 7%, the viability at 100 µg/mL ([2]; Homo sapiens, U373 MG, read-out: Average cell viability, U373, 100 ug/mL) was 5% and the “U373 AVG” value ([2]; U373, sample at 1 ug/mL) was 0.89. For the same compound, the “U373 AVG” value ([2]; U373, sample at 10 ug/mL) was 0.90, the “U373 AVG” value ([2]; U373, sample at 50 ug/mL) was 0.07 and the “U373 AVG” value ([2]; U373, sample at 100 ug/mL) was 0.05. The “Fold change in viability AVG” value ([2]; 1 ug/mL) was 0.89, the “Fold change in viability AVG” value ([2]; 10 ug/mL) was 0.90 and the “Fold change in viability AVG” value ([2]; 50 ug/mL) was 0.07. The “Fold change in viability AVG” value ([2]; 100 ug/mL) was 0.05, the “Fold change in viability AVG” value ([3]; 1 ug/mL) was 1.02 and the “Fold change in viability AVG” value ([3]; 10 ug/mL) was 1.07. For the same compound, the “Fold change in viability AVG” value ([3]; 50 ug/mL) was 0.15, the “Fold change in viability AVG” value ([3]; 100 ug/mL) was 0.06 and the “A549 AVG” value (A549 (lung carcinoma); A549, sample at 1 ug/mL) was 1.11. For the same compound, the “A549 AVG” value (A549 (lung carcinoma); A549, sample at 10 ug/mL) was 1.12, the “A549 AVG” value (A549 (lung carcinoma); A549, sample at 50 ug/mL) was 0.66 and the “A549 AVG” value (A549 (lung carcinoma); A549, sample at 100 ug/mL) was 0.13. The “Fold change in viability AVG” value (A549 (lung carcinoma); 1 ug/mL) was 1.11, the “Fold change in viability AVG” value (A549 (lung carcinoma); 10 ug/mL) was 1.12 and the “Fold change in viability AVG” value (A549 (lung carcinoma); 50 ug/mL) was 0.66. For the same compound, the “Fold change in viability AVG” value (A549 (lung carcinoma); 100 ug/mL) was 0.13, the viability at 1 µg/mL (A549 (lung carcinoma); Homo sapiens, A549, read-out: Average cell viability, A549, 1 ug/mL) was 95% and the viability at 10 µg/mL (A549 (lung carcinoma); Homo sapiens, A549, read-out: Average cell viability, A549, 10 ug/mL) was 96%. For the same compound, the viability at 50 µg/mL (A549 (lung carcinoma); Homo sapiens, A549, read-out: Average cell viability, A549, 50 ug/mL) was 56%, the viability at 100 µg/mL (A549 (lung carcinoma); Homo sapiens, A549, read-out: Average cell viability, A549, 100 ug/mL) was 11% and the “MDA-MB AVG” value (MDA-MB [4]; sample at 1 ug/mL) was 1.09. For the same compound, the “MDA-MB AVG” value (MDA-MB [4]; sample at 10 ug/mL) was 1.04, the “MDA-MB AVG” value (MDA-MB [4]; sample at 50 ug/mL) was 0.19 and the “MDA-MB AVG” value (MDA-MB [4]; sample at 100 ug/mL) was 0.16. The “Fold change in viability AVG” value (MDA-MB [4]; 1 ug/mL) was 1.09, the “Fold change in viability AVG” value (MDA-MB [4]; 10 ug/mL) was 1.04 and the “Fold change in viability AVG” value (MDA-MB [4]; 50 ug/mL) was 0.19. For the same compound, the “Fold change in viability AVG” value (MDA-MB [4]; 100 ug/mL) was 0.16, the viability at 72 h, 1 ug/mL (in vitro) was 93% and the viability at 72 h, 10 ug/mL (in vitro) was 97%. For the same compound, the viability at 72 h, 50 ug/mL (in vitro) was 13%, the viability at 72 h, 100 ug/mL (in vitro) was 6% and the viability at 1 µg/mL (PC3; Homo sapiens, PC-3, read-out: Average cell viability, PC3, 1 ug/mL) was 91%. It also gave a viability at 10 µg/mL (PC3; Homo sapiens, PC-3, read-out: Average cell viability, PC3, 10 ug/mL) of 97%, a viability at 50 µg/mL (PC3; Homo sapiens, PC-3, read-out: Average cell viability, PC3, 50 ug/mL) of 11% and a viability at 100 µg/mL (PC3; Homo sapiens, PC-3, read-out: Average cell viability, PC3, 100 ug/mL) of 6%. For the same compound, the “PC3 AVG” value (PC3; PC3, sample at 1 ug/mL) was 0.94, the “PC3 AVG” value (PC3; PC3, sample at 10 ug/mL) was 1.00 and the “PC3 AVG” value (PC3; PC3, sample at 50 ug/mL) was 0.12. For the same compound, the “PC3 AVG” value (PC3; PC3, sample at 100 ug/mL) was 0.06, the “Fold change in viability AVG” value (PC3; 1 ug/mL) was 0.94 and the “Fold change in viability AVG” value (PC3; 10 ug/mL) was 1.00. For the same compound, the “Fold change in viability AVG” value (PC3; 50 ug/mL) was 0.12, the “Fold change in viability AVG” value (PC3; 100 ug/mL) was 0.06 and the viability at 1 µg/mL ([5]; Homo sapiens, SK-OV-3, read-out: Average cell viability, SKOV, 1 ug/mL) was 85%. The viability at 10 µg/mL ([5]; Homo sapiens, SK-OV-3, read-out: Average cell viability, SKOV, 10 ug/mL) was 88%, the viability at 50 µg/mL ([5]; Homo sapiens, SK-OV-3, read-out: Average cell viability, SKOV, 50 ug/mL) was 67% and the viability at 100 µg/mL ([5]; Homo sapiens, SK-OV-3, read-out: Average cell viability, SKOV, 100 ug/mL) was 26%. For the same compound, the “Fold change in viability AVG” value ([5]; 1 ug/mL) was 0.91, the “Fold change in viability AVG” value ([5]; 10 ug/mL) was 0.95 and the “Fold change in viability AVG” value ([5]; 50 ug/mL) was 0.73. The “Fold change in viability AVG” value ([5]; 100 ug/mL) was 0.28, the viability at 1 µg/mL ([6]; Homo sapiens, THP-1, read-out: Average cell viability, THP-1, 1 ug/mL) was 91% and the viability at 10 µg/mL ([6]; Homo sapiens, THP-1, read-out: Average cell viability, THP-1, 10 ug/mL) was 91%. The viability at 50 µg/mL ([6]; Homo sapiens, THP-1, read-out: Average cell viability, THP-1, 50 ug/mL) was 21%, the viability at 100 µg/mL ([6]; Homo sapiens, THP-1, read-out: Average cell viability, THP-1, 100 ug/mL) was 17% and the “THP-1 AVG” value ([6]; THP-1, sample at 1 ug/mL) was 1.04. The “THP-1 AVG” value ([6]; THP-1, sample at 10 ug/mL) was 1.03, the “THP-1 AVG” value ([6]; THP-1, sample at 50 ug/mL) was 0.24 and the “THP-1 AVG” value ([6]; THP-1, sample at 100 ug/mL) was 0.19. For the same compound, the “Fold change in viability AVG” value ([6]; 1 ug/mL) was 1.04, the “Fold change in viability AVG” value ([6]; 10 ug/mL) was 1.03 and the “Fold change in viability AVG” value ([6]; 50 ug/mL) was 0.24. For the same compound, the “Fold change in viability AVG” value ([6]; 100 ug/mL) was 0.19.

For `CO[C@H]1CC(C)(C)C(/C=C/C(C)=C/C=C/C(C)=C/C=C/C=C(C)/C=C/C=C(C)/C=C/C2=C(C)C[C@@H](O)CC2(C)C)=C(C)C1=O` [D], the “anti-cancer activity (in words)” value (cancer cell lines) was “anti-cancer activity”.

From patent publication US11292807B2 (OCEANS LTD., priority 2015, dated 2022)
